{"source": "patent US11291640B2", "about": "“Endoxifen for the treatment of bipolar I disorder” (Jina Pharmaceuticals, Inc., priority 2020, dated 2022)", "key": {"[1]": {"system": "patients of bipolar I disorders", "assay": "Clinical study, total YMRS score at each visit", "assay_type": "in vivo", "conditions": "day 21 (EOT); patient with bipolar I disorders", "experimental": "(§1) Clinical study of an enteric coated tablet comprising endoxifen citrate formulation was carried out by administering to the patient doses of 2 mg to 16 mg of endoxifen citrate in an enteric coated tablet once per day for at least 21 days according to the present application.\n(§2) The clinical study was a multicenter, randomized, double-blind, double-dummy, active controlled, parallel study to assess the efficacy and safety of endoxifen enteric coated tablet 8 mg and divalproex sodium extended release tablet 1000 mg in patients of bipolar I disorders.\n(§3) Total 228 patients were enrolled in the study. All 228 patients were qualified for safety and mITT population and 213 patients were qualified for PP population."}, "[2]": {"system": "patients of bipolar I disorders", "assay": "Clinical study, MADRS score at each visit", "assay_type": "in vivo", "conditions": "day 21 (EOT); patient with bipolar I disorders", "experimental": "as §1, §2, §3"}, "[3]": {"system": "patients of bipolar I disorders", "assay": "Clinical study, response time, remission time and therapeutic dose monitoring", "assay_type": "in vivo", "conditions": "from table 1 and 2", "experimental": "The term “response time” means an early indicator of treatment efficacy and it is not more than 2 days of treatment according to the embodiments described herein.\nThe term “remission time” refers to an absence or minimal symptoms of both mania and depression, which is not more than 4 days of treatment according to the embodiments described herein. Remission is the target of acute treatment.\nas §1, §2"}, "[4]": {"system": "PKC", "conditions": "cited from earlier work"}}, "note": "Where a name gives a salt, the structure may show the parent alone.", "data": [{"smiles": "CC/C(=C(\\c1ccc(O)cc1)c1ccc(OCCNC)cc1)c1ccccc1", "note": "[Endoxifen, (Z)-1-(4-Hydroxyphenyl)-1-{4-[2-(monomethylamino)ethoxy]phenyl}-2-pheny 1-1-butene citrate]", "values": [{"measurement": "improvement in the YMRS score", "setting": "[1]", "result": "significant and sustained improvements"}, {"measurement": "improvement in the MADRS score", "setting": "[2]", "result": "significant and sustained improvements"}, {"measurement": "early response time of the treatment", "setting": "[3]", "result": "at least 2 days"}, {"measurement": "remission time of treatment", "setting": "[3]", "result": "not more than 4 days"}, {"measurement": "potency in inhibiting the PKC activity compared to tamoxifen", "setting": "[4]", "result": "four-fold higher potency"}]}]}
